# Reference: PubChem BioAssay (NCI)
#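 Results reflect a 48-hour exposure of cells in 96-well plates to compound at five concentrations. TGI denotes the concentration required for complete inhibition of growth.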
# What was measured:
# Assay in all cases: NCI tumour cell line growth inhibition, 48 h
# DLD-1 colon = tested on: DLD-1 colon
# HOP-92 NSCLC = tested on: HOP-92 NSCLC
# NCI-H226 lung = tested on: NCI-H226 lung
# SR leukemia = tested on: SR leukemia
# HCT-116 colon = tested on: HCT-116 colon
# HCC-2998 colon = tested on: HCC-2998 colon
# CCRF-CEM leukemia = tested on: CCRF-CEM leukemia
# K-562 leukemia = tested on: K-562 leukemia
# NCI-H460 lung = tested on: NCI-H460 lung
# UACC-62 melanoma = tested on: UACC-62 melanoma
# ACHN renal = tested on: ACHN renal
# TK-10 renal = tested on: TK-10 renal
# RXF 393 renal = tested on: RXF 393 renal
# UO-31 renal = tested on: UO-31 renal
# M19-MEL melanoma = tested on: M19-MEL melanoma
# MALME-3M melanoma = tested on: MALME-3M melanoma
# NCI-H23 lung = tested on: NCI-H23 lung
# HL-60(TB) leukemia = tested on: HL-60(TB) leukemia
# NCI-H522 lung = tested on: NCI-H522 lung
# KM20L2 colon = tested on: KM20L2 colon
# U251 CNS = tested on: U251 CNS
# SK-MEL-5 melanoma = tested on: SK-MEL-5 melanoma
# DMS 273 small cell lung = tested on: DMS 273 small cell lung
# HOP-18 NSCLC = tested on: HOP-18 NSCLC
# EKVX NSCLC = tested on: EKVX NSCLC
# SK-OV-3 ovarian = tested on: SK-OV-3 ovarian
# LXFL 529 NSCLC = tested on: LXFL 529 NSCLC
# SW-620 colon = tested on: SW-620 colon
# DMS 114 small cell lung = tested on: DMS 114 small cell lung
# IGROV1 ovarian = tested on: IGROV1 ovarian
# SF-268 CNS = tested on: SF-268 CNS
# A549 NSCLC = tested on: A549 NSCLC
# MOLT-4 leukemia = tested on: MOLT-4 leukemia
# M14 melanoma = tested on: M14 melanoma
# SNB-78 CNS = tested on: SNB-78 CNS
# SK-MEL-28 melanoma = tested on: SK-MEL-28 melanoma
# SK-MEL-2 melanoma = tested on: SK-MEL-2 melanoma
# HOP-62 NSCLC = tested on: HOP-62 NSCLC
# RXF-631 renal = tested on: RXF-631 renal
# SN12C renal = tested on: SN12C renal
# SNB-75 CNS = tested on: SNB-75 CNS
# HCT-15 colon = tested on: HCT-15 colon
# CAKI-1 renal = tested on: CAKI-1 renal
# KM12 colon = tested on: KM12 colon
# SF-539 CNS = tested on: SF-539 CNS
# OVCAR-5 ovarian = tested on: OVCAR-5 ovarian
# LOX IMVI melanoma = tested on: LOX IMVI melanoma
# 786-0 renal = tested on: 786-0 renal
# OVCAR-8 ovarian = tested on: OVCAR-8 ovarian
# OVCAR-3 ovarian = tested on: OVCAR-3 ovarian
# RPMI-8226 leukemia = tested on: RPMI-8226 leukemia
# XF 498 CNS = tested on: XF 498 CNS
# COLO 205 colon = tested on: COLO 205 colon
# OVCAR-4 ovarian = tested on: OVCAR-4 ovarian
# UACC-257 melanoma = tested on: UACC-257 melanoma
# SNB-19 CNS = tested on: SNB-19 CNS
# HT29 colon = tested on: HT29 colon
# A498 renal = tested on: A498 renal
# SF-295 CNS = tested on: SF-295 CNS
smiles,measurement,setting,value
Brc1ccc2c(C3CN[C@@H](c4c[nH]c5cc(Br)ccc45)CN3)c[nH]c2c1 (stereo partly drawn),TGI,DLD-1 colon,12.8 µM
same,TGI,HOP-92 NSCLC,9.29 µM
same,TGI,NCI-H226 lung,7.96 µM
same,TGI,SR leukemia,3.08 µM
same,TGI,HCT-116 colon,3.55 µM
same,TGI,HCC-2998 colon,5.43 µM
same,TGI,CCRF-CEM leukemia,11.7 µM
same,TGI,K-562 leukemia,9.4 µM
same,TGI,NCI-H460 lung,3.85 µM
same,TGI,UACC-62 melanoma,17.5 µM
same,TGI,ACHN renal,12.6 µM
same,TGI,TK-10 renal,20.8 µM
same,TGI,RXF 393 renal,4.41 µM
same,TGI,UO-31 renal,18.1 µM
same,TGI,M19-MEL melanoma,19.4 µM
same,TGI,MALME-3M melanoma,26.5 µM
same,TGI,NCI-H23 lung,7.13 µM
same,TGI,HL-60(TB) leukemia,7.72 µM
same,TGI,NCI-H522 lung,5.6 µM
same,TGI,KM20L2 colon,4.96 µM
same,TGI,U251 CNS,18.5 µM
same,TGI,SK-MEL-5 melanoma,14.3 µM
same,TGI,DMS 273 small cell lung,5.13 µM
same,TGI,HOP-18 NSCLC,24.6 µM
same,TGI,EKVX NSCLC,21.9 µM
same,TGI,SK-OV-3 ovarian,16.6 µM
same,TGI,LXFL 529 NSCLC,6.86 µM
same,TGI,SW-620 colon,9.05 µM
same,TGI,DMS 114 small cell lung,5.14 µM
same,TGI,IGROV1 ovarian,23.6 µM
same,TGI,SF-268 CNS,19.1 µM
same,TGI,A549 NSCLC,9.02 µM
same,TGI,MOLT-4 leukemia,11 µM
same,TGI,M14 melanoma,9.6 µM
same,TGI,SNB-78 CNS,22.7 µM
same,TGI,SK-MEL-28 melanoma,23.8 µM
same,TGI,SK-MEL-2 melanoma,10.9 µM
same,TGI,HOP-62 NSCLC,16.2 µM
same,TGI,RXF-631 renal,12.9 µM
same,TGI,SN12C renal,17.7 µM
same,TGI,SNB-75 CNS,31.7 µM
same,TGI,HCT-15 colon,13.6 µM
same,TGI,CAKI-1 renal,25.9 µM
same,TGI,KM12 colon,3.47 µM
same,TGI,SF-539 CNS,12.9 µM
same,TGI,OVCAR-5 ovarian,10.1 µM
same,TGI,LOX IMVI melanoma,9.03 µM
same,TGI,786-0 renal,9.91 µM
same,TGI,OVCAR-8 ovarian,15.9 µM
same,TGI,OVCAR-3 ovarian,19.7 µM
same,TGI,RPMI-8226 leukemia,5.16 µM
same,TGI,XF 498 CNS,18.7 µM
same,TGI,COLO 205 colon,3.49 µM
same,TGI,OVCAR-4 ovarian,13.6 µM
same,TGI,UACC-257 melanoma,23.4 µM
same,TGI,SNB-19 CNS,22.4 µM
same,TGI,HT29 colon,9.52 µM
same,TGI,A498 renal,9.36 µM
same,TGI,SF-295 CNS,12.4 µM
CC(=O)Nc1ccc(C2C(C(=O)Nc3ccccc3C)=C(C)NC(C)=C2C(=O)Nc2ccccc2C)cc1,TGI,DLD-1 colon,> 100 µM
same,TGI,HOP-92 NSCLC,> 100 µM
same,TGI,NCI-H226 lung,> 100 µM
same,TGI,SR leukemia,> 100 µM
same,TGI,HCT-116 colon,> 100 µM
same,TGI,HCC-2998 colon,> 100 µM
same,TGI,CCRF-CEM leukemia,> 100 µM
same,TGI,K-562 leukemia,> 100 µM
same,TGI,NCI-H460 lung,> 100 µM
same,TGI,UACC-62 melanoma,> 100 µM
same,TGI,ACHN renal,> 100 µM
same,TGI,TK-10 renal,> 100 µM
same,TGI,RXF 393 renal,> 100 µM
same,TGI,UO-31 renal,> 100 µM
same,TGI,M19-MEL melanoma,> 100 µM
same,TGI,MALME-3M melanoma,> 100 µM
same,TGI,NCI-H23 lung,> 100 µM
same,TGI,HL-60(TB) leukemia,> 100 µM
same,TGI,NCI-H522 lung,> 100 µM
same,TGI,KM20L2 colon,> 100 µM
same,TGI,U251 CNS,> 100 µM
same,TGI,SK-MEL-5 melanoma,> 100 µM
same,TGI,DMS 273 small cell lung,> 100 µM
same,TGI,HOP-18 NSCLC,> 100 µM
same,TGI,EKVX NSCLC,> 100 µM
same,TGI,SK-OV-3 ovarian,> 100 µM
same,TGI,LXFL 529 NSCLC,> 100 µM
same,TGI,SW-620 colon,> 100 µM
same,TGI,DMS 114 small cell lung,> 100 µM
same,TGI,IGROV1 ovarian,> 100 µM
same,TGI,SF-268 CNS,> 100 µM
same,TGI,A549 NSCLC,> 100 µM
same,TGI,MOLT-4 leukemia,> 26.2 µM
same,TGI,M14 melanoma,> 100 µM
same,TGI,SNB-78 CNS,> 100 µM
same,TGI,SK-MEL-28 melanoma,> 100 µM
same,TGI,SK-MEL-2 melanoma,> 100 µM
same,TGI,HOP-62 NSCLC,> 100 µM
same,TGI,RXF-631 renal,> 100 µM
same,TGI,SN12C renal,> 100 µM
same,TGI,SNB-75 CNS,> 100 µM
same,TGI,HCT-15 colon,> 100 µM
same,TGI,CAKI-1 renal,> 100 µM
same,TGI,KM12 colon,> 31.6 µM
same,TGI,SF-539 CNS,> 100 µM
same,TGI,OVCAR-5 ovarian,> 100 µM
same,TGI,LOX IMVI melanoma,> 100 µM
same,TGI,786-0 renal,> 100 µM
same,TGI,OVCAR-8 ovarian,> 100 µM
same,TGI,OVCAR-3 ovarian,> 100 µM
same,TGI,RPMI-8226 leukemia,> 100 µM
same,TGI,XF 498 CNS,> 100 µM
same,TGI,COLO 205 colon,> 100 µM
same,TGI,OVCAR-4 ovarian,> 100 µM
same,TGI,UACC-257 melanoma,> 100 µM
same,TGI,SNB-19 CNS,> 100 µM
same,TGI,HT29 colon,> 100 µM
same,TGI,A498 renal,> 100 µM
same,TGI,SF-295 CNS,> 100 µM
